Positions of bridges follow the written chain, without caps; N, C: chain ends. Non-standard residues stand in square brackets, D forms with d. Residues, ends and D or L forms follow the SMILES beside them. Cit = NC(=O)NCCC[C@H](N)C(=O)O
How the values were obtained:
human MC4R [1] = molecular target: T1, human MC4R (Homo sapiens, UniProt P32245); assay: Functional cAMP assay (CisBio HTRF) in BHK cells expressing human MC4R; format: cell-based; conditions: for EC50: BHK cells expressing human MC4R, '>' = highest dose used with no response, read-out: MC4R cAMP EC50; for MC1R/MC4R cAMP EC50 ratio: MC1R cAMP EC50 divided by MC4R cAMP EC50
T1 construct: expressed in transfected cells
In short: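 Stably transfected BHK cells expressing human MC1R or MC4R; cAMP quantified by HTRF (cAMP-d2/cryptate) after 30 min compound stimulation at 25 °C in DMEM-based buffer with 1 mM IBMX. Compounds were prepared as 10-fold serial dilutions starting at 2 μM (working solution, 2× final). Readout after 1 h at 25 °C; non-linear regression.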

human MC4R [2] = molecular target: T1, human MC4R; assay: 125NDP-α-MSH competitive binding to membranes of BHK cells expressing human MC4 receptor (filtration assay); conditions: human MC4R, BHK cell membranes, 125NDP-α-MSH radioligand; read-out: MC4R binding Ki
Procedure: In Vitro ^125NDP-α-MSH Binding to Recombinant BHK Cells Expressing Human MC4 Receptor (Filtration Assay)
In order to assess the binding affinity of the selected compounds for the human MC4R competitive binding assays was performed with radiolabeled NDP-alpha MSH (^125NDP-α-MSH).
The assay was performed in 96-well filterplates (Unifilter) using BHK cells stably expressing the human MC4 receptor.
The BHK cell membranes were prepared from frozen or fresh cells that were homogenized in 20 mM HEPES pH 7.1, 5 mM MgCl2, 1 mg/ml bacitracin (buffer 1) and centrifuged at 15000 rpm at 4° C., 10 min in a Sorvall RC 5B plus, SS-34 rotor. The supernatant was discarded, and the pellets were re-suspended in buffer 1, homogenized and centrifuged two more times. The final pellets were re-suspended in buffer 1 and the protein concentration was measured and adjusted with buffer 1 to 5 mg/ml and the membrane preparation was kept at −80° C. until assay. The assay was run on a dilution of this cell membrane suspension without any further preparation. The suspension was diluted to give maximally 10% specific binding, i.e. to approx. 50-100 fold dilution, optimized after each membrane preparation. The assay was performed in a total volume of 200 μl: 50 μl of cell suspension, 50 μl of ^125NDP-α-MSH (apx. […] in final concentration), 50 μl of test compound and 50 μl binding buffer were mixed and incubated for 2 h at 25° C. (binding buffer: 25 mM HEPES, pH 7.0, 1 mM CaCl2), 1 mM MgSO4, 1 mM EGTA, 0.005% Tween™ 20 and 0.1% HSA or, alternatively, 0.1% ovalbumin (Sigma; catalogue No. A-5503)). Test compounds were dissolved in 100% DMSO and diluted in binding buffer in a dose range from 1 μM to 0.001 nM. Radiolabelled ligand and membranes were diluted in binding buffer. The incubation was stopped by dilution with 8×100 μl ice-cold 0.9% NaCl. The radioactivity retained on the filters was counted using a Packard Topcounter. The data were analysed by non-linear regression analysis of binding curves, using the Windows™ program GraphPad™ Prism (GraphPad Software, USA).

T1 sequence (P32245 whole entry): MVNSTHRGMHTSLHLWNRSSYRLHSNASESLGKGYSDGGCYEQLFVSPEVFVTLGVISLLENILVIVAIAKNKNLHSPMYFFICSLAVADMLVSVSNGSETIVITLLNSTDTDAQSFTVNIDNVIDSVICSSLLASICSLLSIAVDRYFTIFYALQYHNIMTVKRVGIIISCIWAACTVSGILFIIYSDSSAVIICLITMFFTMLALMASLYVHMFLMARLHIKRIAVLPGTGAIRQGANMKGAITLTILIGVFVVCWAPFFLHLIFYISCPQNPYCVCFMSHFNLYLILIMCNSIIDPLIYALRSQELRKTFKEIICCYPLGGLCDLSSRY

Structure (SMILES) | EC50 (human MC4R [1]) [nM] | MC1R/MC4R cAMP EC50 ratio (human MC4R [1]) | Ki (human MC4R [2]) [nM]
N=C(N)NCCC[C@@H]1NC(=O)[C@@H]2CSSC[C@H](NC(=O)[C@H](Cc3c[nH]c4ccccc34)NC(=O)[C@H](CCCNC(N)=O)NC(=O)[C@@H](Cc3ccccc3)NC(=O)[C@H](Cc3c[nH]cn3)NC1=O)C(=O)N[C@@H](CCCNC(=N)N)C(=O)N[C@@H](Cc1c[nH]cn1)C(=O)N[C@H](Cc1ccccc1)C(=O)N[C@@H](CCCNC(N)=O)C(=O)N[C@@H](Cc1c[nH]c3ccccc13)C(=O)N2 [Chem. 54, c[c[Cys-Arg-His-D-Phe-Cit-Trp-Cys]- Arg-His-D-Phe-Cit-Trp]] (cyclo(CRH[dF][Cit]WCRH[dF][Cit]W); disulfide 1-7) | 0.04 | 7 | 0.21
C[C@@H]1NC(=O)[C@@H]2CSSC[C@H](NC(=O)[C@H](Cc3c[nH]c4ccccc34)NC(=O)[C@H](CCC(N)=O)NC(=O)[C@@H](Cc3ccccc3)NC(=O)[C@H](Cc3c[nH]cn3)NC1=O)C(=O)N[C@@H](C)C(=O)N[C@@H](CCCCN)C(=O)N[C@H](CCCCN)C(=O)N[C@@H](CCCCN)C(=O)N[C@@H](Cc1c[nH]c3ccccc13)C(=O)N2 [Chem. 57, c[c[Cys-Ala-His-D-Phe-Gln-Trp-Cys]- Ala-Lys-D-Lys-Lys-Trp]] (cyclo(AH[dF]QWCAK[dK]KWC); disulfide 6-12) | 0.19 | 55 | 0.21
CC(=O)NCCCC[C@@H]1NC(=O)[C@@H](Cc2ccccc2)NC(=O)[C@H](Cc2c[nH]cn2)NC(=O)[C@H](C)NC(=O)[C@@H]2CSSC[C@H](NC(=O)[C@H](Cc3c[nH]c4ccccc34)NC1=O)C(=O)N[C@@H](C)C(=O)N[C@@H](CCCCN)C(=O)N[C@H](CCCCN)C(=O)N[C@@H](CCCCN)C(=O)N[C@@H](Cc1c[nH]c3ccccc13)C(=O)N2 [Chem. 58, c[c[Cys-Ala-His-D-Phe-AcLys-Trp- Cys]-Ala-Lys-D-Lys-Lys-Trp]] (cyclo(AH[dF]K(Ac)WCAK[dK]KWC); disulfide 6-12) | 0.11 | 36 | 0.09
C[C@@H]1NC(=O)[C@@H]2CSSC[C@H](NC(=O)[C@H](Cc3c[nH]c4ccccc34)NC(=O)[C@H](Cc3c[nH]cn3)NC(=O)[C@@H](Cc3ccccc3)NC(=O)[C@H](Cc3c[nH]cn3)NC1=O)C(=O)N[C@@H](C)C(=O)N[C@@H](CCCCN)C(=O)N[C@@H](CCCCN)C(=O)N[C@@H](CCCCN)C(=O)N[C@@H](Cc1c[nH]c3ccccc13)C(=O)N2 [Chem. 60, c[c[Cys-Ala-His-D-Phe-His-Trp-Cys]- Ala-Lys-Lys-Lys-Trp]] (cyclo(AH[dF]HWCAKKKWC); disulfide 6-12) | 0.17 | 313 | 0.1

Continued by falling EC50 (human MC4R [1]), values first:

EC50 (human MC4R [1]) [nM] | MC1R/MC4R cAMP EC50 ratio (human MC4R [1]) | Ki (human MC4R [2]) [nM] | Structure (SMILES)
0.06 | 152 | 0.15 | C[C@@H]1NC(=O)[C@@H]2CSSC[C@H](NC(=O)[C@H](Cc3c[nH]c4ccccc34)NC(=O)[C@H](CCCNC(N)=O)NC(=O)[C@@H](Cc3ccccc3)NC(=O)[C@H](Cc3c[nH]cn3)NC1=O)C(=O)N[C@@H](C)C(=O)N[C@@H](CCCCN)C(=O)N[C@@H](CCCCN)C(=O)N[C@@H](CCCCN)C(=O)N[C@@H](Cc1c[nH]c3ccccc13)C(=O)N2 [Chem. 48, c[c[Cys-Ala-His-D-Phe-Cit-Trp-Cys]- Ala-Lys-Lys-Lys-Trp]] (cyclo(AH[dF][Cit]WCAKKKWC); disulfide 6-12)
0.02 | 42 | 0.08 | C[C@@H]1NC(=O)[C@@H]2CSSC(C)(C)[C@H](NC(=O)[C@H](Cc3c[nH]c4ccccc34)NC(=O)[C@H](CCCNC(=N)N)NC(=O)[C@@H](Cc3ccccc3)NC(=O)[C@H](Cc3c[nH]cn3)NC1=O)C(=O)N[C@@H](C)C(=O)N[C@@H](Cc1c[nH]cn1)C(=O)N[C@H](Cc1ccccc1)C(=O)N[C@@H](CCCNC(=N)N)C(=O)N[C@@H](Cc1c[nH]c3ccccc13)C(=O)N2 [Chem. 63, c[c[Pen-Ala-His-D-Phe-Arg-Trp-Cys]- Ala-His-D-Phe-Arg-Trp]]
